Assay results taken from ChEMBL document CHEMBL1629519, “2-Hydroxypropyl-β-cyclodextrin strongly improves water solubility and anti-proliferative activity of pyrazolo[3,4-d]pyrimidines Src-Abl dual inhibitors” (Eur J Med Chem, 2010).
≈ marks a conversion by molar mass, not a printed value. Calls of active or inactive are those of the source. The rule behind the calls is not given here.

Key:
[1] = Solubility of the compound in 30 % hydroxypropyl-beta-cyclodextrins solution; type: physicochemical; conditions: 30% hydroxypropyl-beta-cyclodextrin solution
[2] = Lipophilicity, log P of the compound; type: physicochemical; conditions: octanol/water
[3] = Aqueous solubility of the compound in dimethyl sulfoxide; type: physicochemical; conditions: aqueous solution with dimethyl sulfoxide
HL-60 = experiment: Anti proliferative activity against human HL60 assessed as cell viability at 12.5 to 25 uM after 48 hrs by MTT assay; type: functional, cell-based
SAOS-2 = experiment: Anti proliferative activity against human Saos2 assessed as cell viability at 12.5 to 25 uM after 48 hrs by MTT assay; type: functional, cell-based
[4] = Antiproliferative activity against human KU812 cells after 3 days by ATP lite 1 step assay; type: functional, cell-based; conditions: KU812, 72 h
K562 = experiment: Antiproliferative activity against human K562 cells after 3 days by ATP lite 1 step assay; type: functional, cell-based; conditions: K562, 72 h

Structure (SMILES)	solubility [1]	logP [2]	solubility [3]	IC50 (K562)	Activity (HL-60)	Activity (SAOS-2)	IC50 [4]
CSc1nc(NCCc2ccc(Cl)cc2)c2cnn(CC(Cl)c3ccccc3)c2n1 (configuration not stated)	612 µM (≈ 281 µg/mL)	7.41	0.158 µM (≈ 0.0724 µg/mL)				
CC(O)COC[C@H]1O[C@@H]2O[C@H]3[C@H](O)[C@@H](O)[C@@H](O[C@H]4[C@H](O)[C@@H](O)[C@@H](O[C@H]5[C@H](O)[C@@H](O)[C@@H](O[C@H]6[C@H](O)[C@@H](O)[C@@H](O[C@H]7[C@H](O)[C@@H](O)[C@@H](O[C@H]8[C@H](O)[C@@H](O)[C@@H](O[C@H]1[C@H](O)[C@H]2O)O[C@@H]8COCC(C)O)O[C@@H]7COCC(C)O)O[C@@H]6COCC(C)O)O[C@@H]5COCC(C)O)O[C@@H]4COCC(C)O)O[C@@H]3COCC(C)O (some centres not stated)					inactive	inactive	
CSc1nc(NCCc2cccc(F)c2)c2cnn(CC(Cl)c3ccccc3)c2n1 (configuration not stated)	790 µM (≈ 349 µg/mL)	6.44	0.588 µM (≈ 0.26 µg/mL)				
CSc1nc(NCc2ccccc2F)c2cnn(CC(Cl)c3ccccc3)c2n1 (configuration not stated)		5.88		6.11 µM			7.87 µM
CSc1nc(NCCc2ccccc2)c2cnn(CC(Cl)c3ccccc3)c2n1 (configuration not stated)	947 µM (≈ 402 µg/mL)		0.166 µM (≈ 0.0704 µg/mL)				

Second part, led by results:

solubility [1]	logP [2]	solubility [3]	IC50 (K562)	Structure (SMILES)	Activity (HL-60)	Activity (SAOS-2)	IC50 [4]
314 µM (≈ 140 µg/mL)	6.76	0.295 µM (≈ 0.131 µg/mL)	7.19 µM	CSc1nc(NCc2cccc(Cl)c2)c2cnn(CC(Cl)c3ccccc3)c2n1 (configuration not stated)			24.1 µM
838 µM (≈ 344 µg/mL)	5.49	0.512 µM (≈ 0.21 µg/mL)		CSc1nc(NCc2ccccc2)c2cnn(CC(Cl)c3ccccc3)c2n1 (configuration not stated)			
910 µM (≈ 430 µg/mL)	7.4	0.107 µM (≈ 0.0506 µg/mL)		CCCSc1nc(NCc2cccc(Cl)c2)c2cnn(CC(Cl)c3ccccc3)c2n1 (configuration not stated)			
390 µM (≈ 191 µg/mL)	6.37	0.141 µM (≈ 0.0689 µg/mL)		CSc1nc(NCc2cccc(Br)c2)c2cnn(CC(Cl)c3ccccc3)c2n1 (configuration not stated)			
